The values that follow come from patent US6784165B1, “Treatment of heart rhythm disturbances with N6-substituted-5′-(N-substituted) carboxamidoadenosines” (Aderis Pharmaceuticals, Inc., priority 1999, dated 2004).

Read-outs that look alike come from different tables or passages of the source.

Data set [1] in a line: Oral bioavailability estimated from bradycardia AUC oral vs intravenous in conscious rats. The data set is classed as in vivo, rat. The conditions noted are these: for bioavailability: male, Sprague-Dawley, rat, in vivo. From the text: (§1) Concentration dose-effect curve data were fitted to a sigmoid curve using Graphpad PRIZM™ software to obtain the concentration or dose of test compound that produces 50% of the maximal obtainable response, in vitro EC50 or in vivo ED50 values, for activation of the adenosine A1 receptor. Responses measured to each dose were the plateau negative inotropic response to cumulative additions of test compound in the isolated left atria and the peak bradycardia in response to bolus intravenous injections of test compound in conscious rats. Oral bioavailability was estimated from pharmacodynamic responses using the expression: (Response AUCoral/Response AUCiv)(Doseiv/Doseoral), where Response AUC is the area under the curve for test compound-induced bradycardia over time.
(§2) Male Sprague-Dawley rats were anesthetized with sodium pentobarbital 50 mg/kg i.p., and indwelling catheters were surgically implanted in the carotid artery and jugular vein two days prior to each experiment. During all subsequent experiments, rats were conscious and unrestrained. The carotid artery cannula was attached to a pressure transducer and blood pressure was recorded continuously throughout each experiment using a Grass polygraph. Heart rate was derived from the blood pressure signal using a Grass tachygraph. The measured parameters were allowed from 30 to 90 minutes to stabilize before the administration of test compound.
(§3) Test compounds were administered either by oral gavage using a curved, bulbed oral dosing cannula, or by intravenous administration via the jugular vein indwelling catheter. Rats dosed orally were fasted overnight before dosing, with water available ad libitum. Because the heart rate responses following intravenous administration of test compound rapidly returned to baseline, more than one dose of test compound could be administered to each rat. However, the responses to oral administration of test compounds were of a prolonged duration and therefore only a single dose could be administered to each rat.
A comparison of the area under the bradycardia vs. time curve (AUC) following intravenous administration with the AUC following oral administration was used as a measure of oral bioavailability.

For data set [2], the target named is T1, adenosine A1 receptor (Rattus norvegicus, UniProt P25099).
T1 sequence (P25099 1-326): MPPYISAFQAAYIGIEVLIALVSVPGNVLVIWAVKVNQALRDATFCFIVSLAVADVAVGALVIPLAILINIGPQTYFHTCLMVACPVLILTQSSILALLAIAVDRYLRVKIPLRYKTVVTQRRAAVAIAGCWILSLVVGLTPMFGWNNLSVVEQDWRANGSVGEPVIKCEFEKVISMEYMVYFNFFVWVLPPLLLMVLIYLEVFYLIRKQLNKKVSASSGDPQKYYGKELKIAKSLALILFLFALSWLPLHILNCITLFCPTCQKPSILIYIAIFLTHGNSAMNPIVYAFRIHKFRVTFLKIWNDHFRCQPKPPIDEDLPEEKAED
In words: Negative inotropic response in electrically stimulated rat isolated left atria (isoproterenol-stimulated). Further details: from tissue; host or cells: whole animal (conscious Sprague-Dawley rats). Particulars: plateau negative inotropic response, 1 Hz, isoproterenol 10^−8 M.
Text: as §1
Male Sprague-Dawley rats weighing 200-350 grams were sacrificed and the hearts rapidly removed and placed in a warmed Krebs-Henseleit buffer solution. The left atria were dissected free from the hearts and suspended in 30 mL jacketed isolated organ baths filled with Krebs-Henseleit buffer, oxygenated with 95% O2/5% CO2 and maintained at 37° C. Tissues were connected to a force displacement transducer under a resting tension of 1 gram. Atria were stimulated electrically at 1 Hz, 1 msec duration and supramaximal voltage to produce regular contractions of tissue.
Adenosine A1 agonists were added to the baths at increasing cumulative concentrations until a maximal decrease in the force of contraction was obtained. Because adenosine A1 agonists have only a small direct negative inotropic action in rat atria, it was necessary to stimulate β-adrenergic receptors to produce positive inotropy in order to maximize the negative intropic response and thereby facilitate measurement. Under these conditions, adenosine A1 agonists acting at A1 receptors indirectly reduce the β-adrenergic mediated positive inotropy. Accordingly, the β-adrenergic agonist isoproterenol (10^−8 M) was added to the organ baths approximately 15 minutes before the addition of the adenosine A1 agonist.

In data set [3] the target is T1, adenosine A1 receptor. In words: Peak bradycardia after bolus intravenous injection in conscious rats. The class given is in vivo. Further details: from tissue; host or cells: whole animal (conscious Sprague-Dawley rats). The conditions noted are these: bolus intravenous injections.
Text: as §1, §2, §3

Turning to `CC(C)NC(=O)[C@H]1O[C@@H](n2cnc3c(NC4CCCC4)ncnc32)[C@H](O)[C@@H]1O` [E], in data set [1], the bioavailability was 28%. This compound came in with an EC50 in data set [2] of 11 nM. Moreover, in data set [3] (rat, read-out: ED50), the ED50 is 0.0034 µmol/kg.
For `O=C(NC1CC1)[C@H]1O[C@@H](n2cnc3c(NC4CCCC4)ncnc32)[C@H](O)[C@@H]1O` [C, N^6-cyclopentyl-5′-(N-cyclopropyl)carboxamidoadenosine], the bioavailability in data set [1] is 38%. This compound also came in with a half-maximal effective concentration (EC50) in data set [2] of 3.8 nM. Also, the ED50 in data set [3] (rat, read-out: ED50) worked out at 0.0093 µmol/kg.
Take `O=C(NCCO)C1OC(n2cnc3c(NC4CC5CCC4C5)ncnc32)C(O)C1O` (stereo not drawn) [H]: the “Oral Bioavailability” value in data set [1] is 2.3%. In addition, the EC50 in data set [2] worked out at 3.8 nM. The compound also gave an ED50 in data set [3] of 0.0034 µmol/kg.
Turning to `CNC(=O)[C@H]1O[C@@H](n2cnc3c(NC4CCCC4)ncnc32)[C@H](O)[C@@H]1O` [D, N^6-cyclopentyl-5′-(N-methyl)carboxamidoadenosine], the bioavailability in data set [1] was 20%. The compound also displayed an EC50 in data set [2] of 19.1 nM. In addition, the ED50 in data set [3] (rat, read-out: ED50) was found to be 0.0039 µmol/kg.
Consider `CCCNC(=O)[C@H]1O[C@@H](n2cnc3c(NC4CCCC4)ncnc32)[C@H](O)[C@@H]1O` [G], for which the bioavailability in data set [1] is 14%. This compound returned an EC50 in data set [2] of 25.1 nM. In addition, the ED50 in data set [3] (rat, read-out: ED50) turned out to be 0.0323 µmol/kg.
Take `CCNC(=O)[C@H]1O[C@@H](n2cnc3c(NC(CC)CC)ncnc32)[C@H](O)[C@@H]1O` [I, N^6-(3-pentyl)-5′-(N-ethyl)carboxamidoadenosine]: the bioavailability in data set [1] is 20%. Besides, a half-maximal response in data set [2] (EC50) required 7.9 nM. Moreover, the ED50 in data set [3] (rat, read-out: ED50) worked out at 0.0079 µmol/kg.
The matching figures for `O=C(NCCO)[C@H]1O[C@@H](n2cnc3c(NC4CCCC4)ncnc32)[C@H](O)[C@@H]1O` [B]: 8.4%, 11.2 nM and 0.0074 µmol/kg.
The matching figures for `CC(C)(C)NC(=O)[C@H]1O[C@@H](n2cnc3c(NC4CCCC4)ncnc32)[C@H](O)[C@@H]1O` [F, N^6-cyclopentyl-5′-(N-t-butyl)carboxamidoadenosine]: 34%, 72.4 nM and 0.363 µmol/kg.
For `CCC(CC)Nc1ncnc2c1ncn2[C@@H]1O[C@H](C(=O)NCCO)[C@@H](O)[C@H]1O` [J], the bioavailability in data set [1] is 9.9%. In data set [2], this compound came in with an EC50 of 21.8 nM. Further, the ED50 in data set [3] (rat, read-out: ED50) turned out to be 0.0083 µmol/kg.

As usually defined, the bioavailability is the share of a dose that reaches the circulation, judged against a reference dose that is usually intravenous. The EC50 is the concentration at which the effect is half-maximal. A higher EC50 goes with a need for much substance. What is called ED50 is the dose that gives a 50% effect, or the effect in half of the subjects.
